# Compound: Cc1ccc(C(=O)Nc2ccc(CN3CCN(C)CC3)c(C(F)(F)F)c2)cc1C#Cc1cnc2cccnn12 [Ponatinib] + O=C(c1cc(Cc2n[nH]c(=O)c3ccccc23)ccc1F)N1CCN(C(=O)C2CC2)CC1 [Olaparib] (partner 8 µM)
# Assay: relative viability (nuclei count vs DMSO), 5 days (fraction); higher = more cells survive
# Conditions: first compound 0.2 µM
# Summary of the method: (§1)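 After 5 days of treatment, lung cancer cells in 1536-well plates were fixed and stained in a single step (final 0.05% Triton X-100, 1% formaldehyde, 1 ug/ml Hoechst) and their nuclei counted on 4× images. Treatment had been applied by pin tool the day after seeding as one drug alone or as a fixed anchor-drug dose with five library-drug doses (not always all listed) in √10 steps. Relative viability is the nuclei count of treated wells divided by that of vehicle wells, and values are medians of duplicate plates.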
row,Cell Line,relative viability
1,CAL-12T,0.683
2,NCI-H2228,0.566
3,NCI-H2023,0.451
4,SK-LU-1,0.388
5,SK-MES-1,0.769
6,NCI-H661,0.737

# Compound: Cc1ccc(Nc2nccc(N(C)c3ccc4c(C)n(C)nc4c3)n2)cc1S(N)(=O)=O [Pazopanib] + CS(=O)(=O)N1CCN(Cc2cc3nc(-c4cccc5[nH]ncc45)nc(N4CCOCC4)c3s2)CC1 [Pictilisib] (partner 1 µM)
# Assay: as above
# Conditions: first compound 0.01 µM
# Summary of the method: as §1
row,Cell Line,relative viability
1,NCI-H838,0.382
2,NCI-H1650,0.54
3,EBC-1,0.402
4,NCI-H1703,0.246
5,NCI-H1993,0.8
6,NCI-H2347,0.513
7,PC-14,0.64
8,LCLC-103H,0.531
9,NCI-H596,0.383
10,NCI-H2126,0.443
11,EMC-BAC-2,0.457
12,NCI-H2085,0.413
13,Calu-6,0.874
14,HCC-366,0.0942
15,NCI-H1666,0.369
16,NCI-H647,0.319
17,LK-2,0.508
18,NCI-H2087,0.784
19,NCI-H1395,0.534

row,Cell Line,relative viability
1,H3255,0.452
2,COR-L23,0.649
3,COR-L 105,0.4
4,IA-LM,0.368
5,LOU-NH91,0.501
6,ChaGo-K-1,0.543
7,NCI-H358,0.337
8,A549,0.494
9,NCI-H2009,0.748
10,SW 1573,0.412
11,NCI-H1299,0.791
12,CAL-12T,0.335
13,NCI-H2228,0.46
14,NCI-H2023,0.173
15,NCI-H1563,0.664
16,SK-LU-1,0.434
17,SK-MES-1,0.39
18,NCI-H661,0.353

# Same assay, conditions: first compound 0.03162 µM
row,Cell Line,relative viability
1,NCI-H838,0.476
2,NCI-H1650,0.696
3,EBC-1,0.508
4,NCI-H1703,0.24
5,NCI-H1993,0.828
6,NCI-H2347,0.648
7,PC-14,0.612
8,LCLC-103H,0.575
9,NCI-H596,0.379
10,NCI-H2126,0.472
11,EMC-BAC-2,0.576
12,NCI-H2085,0.463
13,Calu-6,1.01
14,HCC-366,0.155
15,NCI-H1666,0.307
16,NCI-H647,0.532
17,LK-2,0.724
18,NCI-H2087,0.951
19,NCI-H1395,0.746

row,Cell Line,relative viability
1,H3255,0.454
2,COR-L23,0.771
3,COR-L 105,0.473
4,IA-LM,0.439
5,LOU-NH91,0.534
6,ChaGo-K-1,0.876
7,NCI-H358,0.333
8,A549,0.477
9,NCI-H2009,0.803
10,NCI-H520,0.302
11,SW 1573,0.531
12,NCI-H1299,0.79
13,CAL-12T,0.461
14,NCI-H2228,0.386
15,NCI-H2023,0.202
16,NCI-H1563,0.637
17,SK-LU-1,0.636
18,SK-MES-1,0.365
19,NCI-H661,0.417

# Same assay, conditions: first compound 0.1 µM
row,Cell Line,relative viability
1,NCI-H838,0.497
2,NCI-H1650,0.529
3,EBC-1,0.376
4,NCI-H1703,0.207
5,NCI-H1993,0.709
6,NCI-H2347,0.417
7,PC-14,0.88
8,LCLC-103H,0.635
9,NCI-H596,0.417
10,NCI-H2126,0.559
11,EMC-BAC-2,0.623
12,NCI-H2085,0.47
13,Calu-6,0.993
14,HCC-366,0.116
15,NCI-H1666,0.379
16,LK-2,0.729
17,NCI-H2087,0.85
18,NCI-H1395,0.685
19,H3255,0.427

row,Cell Line,relative viability
1,COR-L23,0.805
2,COR-L 105,0.411
3,IA-LM,0.4
4,LOU-NH91,0.502
5,ChaGo-K-1,0.632
6,NCI-H358,0.297
7,A549,0.63
8,NCI-H2009,0.786
9,NCI-H520,0.335
10,SW 1573,0.514
11,NCI-H1299,0.82
12,CAL-12T,0.527
13,NCI-H2228,0.328
14,NCI-H2023,0.278
15,NCI-H1563,0.697
16,SK-LU-1,0.543
17,SK-MES-1,0.391
18,NCI-H661,0.366

# Same assay, conditions: first compound 0.3162 µM
row,Cell Line,relative viability
1,NCI-H838,0.564
2,NCI-H1650,0.611
3,EBC-1,0.412
4,NCI-H1703,0.198
5,NCI-H1993,0.801
6,NCI-H2347,0.601
7,PC-14,0.637
8,LCLC-103H,0.764
9,NCI-H596,0.381
10,NCI-H2126,0.444
11,EMC-BAC-2,0.579
12,NCI-H2085,0.429
13,Calu-6,0.849
14,HCC-366,0.164
15,NCI-H1666,0.421
16,NCI-H647,0.542
17,LK-2,0.558
18,NCI-H2087,0.963
19,NCI-H1395,0.661

row,Cell Line,relative viability
1,H3255,0.417
2,COR-L23,0.962
3,COR-L 105,0.443
4,IA-LM,0.568
5,LOU-NH91,0.568
6,ChaGo-K-1,0.613
7,NCI-H358,0.415
8,A549,0.589
9,NCI-H2009,0.859
10,NCI-H520,0.278
11,SW 1573,0.632
12,NCI-H1299,0.952
13,CAL-12T,0.401
14,NCI-H2228,0.393
15,NCI-H2023,0.25
16,NCI-H1563,0.667
17,SK-LU-1,0.633
18,SK-MES-1,0.379
19,NCI-H661,0.376

# Same assay, conditions: first compound 1 µM
row,Cell Line,relative viability
1,NCI-H838,0.589
2,NCI-H1650,0.661
3,EBC-1,0.394
